Measurements from the NIST ThermoML archive (doi:10.1021/acs.jced.6b00121).

Experiment: xn = mol fraction of the nth substance listed
Conditions: 100 kPa, Liquid; for viscosity: Falling or rolling sphere viscometry; for mass density: Vibrating tube method

CCCCCCCCCCC [undecane] + CCCO
Conditions | mass density, 303.15 K [kg/m3] | mass density, 308.15 K [kg/m3] | mass density, 313.15 K [kg/m3] | mass density, 318.15 K [kg/m3] | viscosity, 303.15 K [mPa·s] | viscosity, 308.15 K [mPa·s] | viscosity, 313.15 K [mPa·s] | viscosity, 318.15 K [mPa·s] | viscosity, 323.15 K [mPa·s]
x1 = 0.1003 | 778.73 | 774.69 | 770.6 | 766.466 | – | 1.333 | 1.198 | 1.079 | 0.976
x1 = 0.2009 | 767.15 | 763.12 | 759.04 | 754.911 | – | 1.196 | 1.08 | 0.979 | 0.889
x1 = 0.3004 | 758.59 | 754.57 | 750.52 | 746.411 | – | 1.106 | 1.004 | 0.913 | 0.828
x1 = 0.3997 | 752.04 | 748.05 | 744.02 | 739.944 | – | 1.025 | 0.935 | 0.856 | 0.786
x1 = 0.4998 | 746.9 | 742.93 | 738.93 | 734.891 | – | 0.968 | 0.888 | 0.816 | 0.754
x1 = 0.6005 | 742.64 | 738.71 | 734.75 | 730.749 | 1.012 | 0.929 | 0.855 | 0.789 | 0.732
x1 = 0.6974 | 739.34 | 735.45 | 731.52 | 727.572 | 0.978 | 0.901 | 0.833 | 0.772 | 0.717
x1 = 0.8 | 736.55 | 732.7 | 728.83 | 724.934 | 0.961 | 0.886 | 0.821 | 0.763 | 0.712
x1 = 0.8963 | 734.41 | 730.61 | 726.79 | 722.953 | 0.957 | 0.885 | 0.822 | 0.765 | 0.715
x1 = 1 | 732.93 | 729.23 | 725.53 | 721.818 | 0.982 | 0.91 | 0.847 | 0.79 | 0.74
